Measured values as given in US10501499B2 (priority 2012, dated 2019).

How the values were obtained:
[1] = tested on: human PBMCs; assay type: cell-based
[2] = tested on: human PBMCs; assay type: cell-based; remark: listed apart in the source

Row | Sequence | Intracellular Uptake [1] | Extracellular Uptake [2]
1 | RGTANWARVISRANWAKVILRNWAKVI [BI330-83c] | 154.43 | 435.66
2 | RGTANWARVISRGANWAKVILRNWAKVI [BI330-83d] | 52.14 | 267.38
3 | RGTANWARVISRRANWAKVILRNWAKVI [BI330-83b] | 120.10 | 518.60
4 | RGYLPAVGAPIRRRVIRVIAHGLRLR [BI310-511] | 22.62 | 227.46
5 | RGYLPAVGAPIRRVIRVIAHGLRL [BI310-511g] | 66.74 | 171.31
6 | RGYLPAVGAPIRRVIRVIAHGLRLR [BI310-511e] | 44.59 | 473.80
7 | RGYLPAVGAPIRVIRVIAHGLRLR [BI310-511f] | 26.85 | 178.61
8 | RRGTANWARVISRANWAKVILRNWAKVI [BI330-83] | 194.69 | 364.04
9 | RRGYLPAVGAPIRRRVIRVIAHGLRL [BI310-511c] | 31.83 | 203.62
10 | RRGYLPAVGAPIRRVIRVIAHGLRL [BI310-511d] | 70.64 | 267.15
11 | RRGYLPAVGAPIRRVIRVIAHGLRLR [BI310-511b] | 67.29 | 466.71
